Test results as given in patent US20080249130A1, “Gut microsomal triglyceride transport protein inhibitors” (Sirtris Pharmaceuticals, Inc., priority 2007, published 2008).
Like-named read-outs stand apart in the source and are kept apart here.

Test system: secretion of ApoB by HepG2 cells
Assay: ApoB secretion inhibition assay in HepG2 cells (ApoB ELISA)
Format: cell-based, human
Details: Homo sapiens
Experimental: The ability of the compounds of the present invention to inhibit the secretion of ApoB can be determined using the following cell-based assay, which measures the secretion of ApoB by HepG2 cells. ApoB has two possible metabolic fates: entrance into the lipoprotein assembly pathway within the lumen of the endoplasmic reticulum (ER), or degradation in the cytoplasm by the ubiquitin-dependent proteasome. The destiny of ApoB is determined by the relative availability of individual lipids, which is controlled by MTP (Davis, Biochim. Biophys. Acta, 1999, 1440, 1-31).
HepG2 cells (ATCC, HB-8065) are seeded in 96-well plates in DMEM with 10% FBS+pen/strep at a density of 1×10^5 cells/well (100 μl /well). Twenty-four hours after seeding, the plate is aspirated and the media changed to DMEM with 1% BSA and pen/strep, and the cells are serum-starved for 24 hours. After 24 hour serum-starvation, the plate is aspirated again and the cells are then treated for 24 hours with or without compound in DMEM with 1% BSA, 0.3 mM OA (OA complexed to BSA at a 2:1 ratio) and pen/strep. The final concentration of DMSO in the assay (from compound and control) is 0.1%. After 24 hour treatment, conditioned media is collected in an empty 96-well plate.
Cellular viability is measured using the cell permeable dye, AlamarBlue™. This dye undergoes electron reduction in viable cells but not dead cells. The reduced dye product gives a fluorescent signal which can be monitored with a fluorescence plate reader (excitation 545 nm and emission 575 nm). The amount of fluorescence generated in a given well is proportional to the number of viable cells. After collection, the 96-well plate is re-fed with 100 μl media (DMEM with 10% FBS) and 10 μl Alamar Blue™ per well, incubated for 2 hours and then read in a fluorescence plate reader.
ApoB secretion from HepG2 cells is quantitated by testing the conditioned media at […] using an ApoB ELISA kit (ALerCHEK) according to the manufacturer's instructions. The ELISA assay for ApoB is performed as follows: a polyclonal antibody against human ApoB (Chemicon) is diluted 1:1000 in carbonate-bicarbonate buffer and 100 μl are added to each well of a 96-well plate (NUNC). After 5 hours incubation at room temperature, the antibody solution is removed and wells are washed four times with PBS/0.05% TweenD 20 (Cayman Chemical Co.). Non-specific sites on the plastic plate are blocked by incubating wells for 1 to 1.5 hours in a solution of 0.5% BSA and 0.1% TweenD 20 made in PBS. One hundred microliters of a 1:20 dilution of growth medium from the HepG2 cells (made in 0.004% TweenD 20/1% BSA in PBS) is added to each well and incubated for 3 hours at room temperature. Wells are aspirated and washed four times (0.05% TweenD 20 in PBS) prior to adding 100 μl of a 1:1000 dilution (5 μg/ml) of the secondary antibody, mouse anti-human ApoB (Chemicon). After 2 hours incubation at room temperature, this solution is aspirated and the wells are again washed 4 times as above. One hundred microliters of peroxidase-conjugated affinity purified goat anti-mouse IgG (H+L) (Jackson ImmunoResearch Laboratories) (1:10,000 dilution in PBS/1% BSA/0.1% TweenD 20) is then added to each well and incubated for 1 hour at room temperature. After aspirating, the wells are washed 4 times as above and 50 μl of 1-step Ultra TMB ELISA reagent (Pierce) is added to each well and incubated for 5 minutes. The reaction is stopped by the addition of 50 μl of 2 NH2SO4 and absorbance of each well is read at 450 nm.

[1] = HepG2, Table 6, assay of Example 2, read-out: IC50 ApoB Assay

| IC50 [1] | Compound | IC50 (Table 1, HepG2 cells, read-out: gMTP IC50 ApoB Secretion Assay (Example 2)) |
| --- | --- | --- |
| 1100 nM | CC(C)(C)c1ccc(-c2ccccc2C(=O)Nc2nc(-c3ccccc3C(=O)N[C@H](C(=O)N3CCCC3)c3ccccc3)cs2)cc1 [Compound 16, (S)-4′-tert-butyl-N-(4-(2-(2-oxo-1-phenyl-2-(pyrrolidin-1-yl)ethylcarbamoyl)phenyl)thiazol-2-yl)biphenyl-2-carboxamide] |  |
| 18.5 nM | CC(C)c1ccc(-c2ccccc2C(=O)Nc2nc(-c3ccc(C(=O)N[C@H](C(=O)N4CCCC4)c4ccccc4)cc3)cs2)cc1 [Compound 94] |  |
| 13.8 nM | Cc1cccc(C(=O)NCC23CCC(C(=O)N[C@H](C(=O)N(C)C(C)C)c4ccccc4)(CC2)CC3)c1-c1ccc(C(C)(C)C)cc1 [Compound 70] |  |
| 110 nM | CCCN(C)C(=O)[C@@H](NC(=O)c1ccc(-c2csc(NC(=O)c3ccccc3-c3ccc(C(C)(C)C)cc3)n2)cc1)c1ccccc1 [Compound 92] |  |
| 93.1 nM | CN(Cc1ccc(F)cc1)C(=O)[C@@H](NC(=O)c1nc2ccc(NC(=O)c3ccccc3-n3cccn3)cc2s1)c1ccccc1 [Compound 31] |  |
| 26.1 nM | CCCCN(C)C(=O)[C@@H](NC(=O)C12CCC(NC(=O)c3ccccc3-c3ccc(C(C)C)cc3)(CC1)CC2)c1ccccc1 [Compound 103] |  |
| 300 nM | CN(C(=O)[C@@H](NC(=O)C12CCC(CNC(=O)c3ccccc3-c3ccc(C(C)(C)C)cc3)(CC1)CC2)c1ccccc1)C1CCCCC1 [Compound 58] |  |
| 2700 nM | CC(C)(C)c1ccc(-c2ccccc2C(=O)Nc2ccc3nc(C(=O)O)sc3c2)cc1 [Compound 18] |  |
| 77.2 nM | CC(C)(C)c1ccc(-c2ccccc2C(=O)Nc2nc(-c3cccc(C(=O)N[C@H](C(=O)N4CCC(F)(F)C4)c4ccccc4)c3)cs2)cc1 [Compound 26] |  |
| 248 nM | CC(C)(C)NC(=O)[C@@H](NC(=O)c1nc2ccc(NC(=O)c3ccccc3-c3cn4ccsc4n3)cc2s1)c1ccccc1 [Compound 52] |  |
| 13.4 nM | CC(C)c1ccc(-c2ccccc2C(=O)NC23CCC(C(=O)N[C@H](C(=O)N(C)Cc4ccc(F)cc4)c4ccccc4)(CC2)CC3)cc1 [Compound 105] |  |
| > 10000 nM | CN(Cc1ccc(F)cc1)C(=O)[C@@H](NC(=O)c1ccccc1-c1csc(NC(=O)c2ccccc2-c2ccc(C(C)(C)C)cc2)n1)c1ccccc1 [Compound 17] |  |
| 121 nM | CC(C)c1ccc(-c2ccccc2C(=O)Nc2nc(-c3ccc(C(=O)N[C@H](C(=O)N(C)C(C)C)c4ccccc4)cc3)cs2)cc1 [Compound 99] |  |
| 95 nM | CC(C)(C)c1ccc(-c2ccccc2C(=O)NCC23CCC(C(=O)N[C@H](C(=O)N4CCCC4)c4ccccc4)(CC2)CC3)cc1 [Compound 20] |  |
| 14.6 nM | COc1cccc(C(=O)NC23CCC(C(=O)N[C@H](C(=O)N(C)Cc4ccc(F)cc4)c4ccccc4)(CC2)CC3)c1-c1ccc(C(C)(C)C)cc1 [Compound 110] |  |
| 8.8 nM | Cc1cccc(C(=O)Nc2nc(-c3ccc(C(=O)N[C@H](C(=O)N4CCCC4)c4ccccc4)cc3)cs2)c1-c1ccc(C(C)C)cc1 [Compound 89] |  |
| 3.5 nM | Cc1cccc(C(=O)NC23CCC(C(=O)N[C@H](C(=O)N(C)Cc4ccc(F)cc4)c4ccccc4)(CC2)CC3)c1-c1ccc(C(C)C)cc1 [Compound 114] |  |
| 40.2 nM | CC(C)CN(C)C(=O)[C@@H](NC(=O)C12CCC(NC(=O)c3ccccc3-c3ccc(C(C)C)cc3)(CC1)CC2)c1ccccc1 [Compound 106] |  |
|  | CN(Cc1ccc(F)cc1)C(=O)[C@@H](NC(=O)c1ccc2nc(NC(=O)c3ccccc3-c3ccc(C(C)(C)C)cc3)ccc2c1)c1ccccc1 [compound 3, reference compound] | 1.6 nM |
| 105 nM | O=C(N[C@H](C(=O)N1CCCC1)c1ccccc1)c1nc2ccc(NC(=O)c3ccccc3-c3cn4ccsc4n3)cc2s1 [Compound 43] |  |
| 4 nM | CC(C)(C)c1ccc(-c2ccccc2C(=O)Nc2ccc3nc(C(=O)N[C@H](C(=O)NCc4ccccc4)c4ccccc4)sc3c2)cc1 [Compound 6] |  |

| IC50 [1] | Compound | IC50 (Table 1, HepG2 cells, read-out: gMTP IC50 ApoB Secretion Assay (Example 2)) |
| --- | --- | --- |
| 61.1 nM | CC(C)(C)c1ccc(-c2ccccc2C(=O)Nc2nc(-c3ccc(C(=O)N[C@H](C(=O)NCC4CC4)c4ccccc4)cc3)cs2)cc1 [Compound 81] |  |
| 8.2 nM | COc1cccc(C(=O)NC23CCC(C(=O)N[C@H](C(=O)N4CCCC4)c4ccccc4)(CC2)CC3)c1-c1ccc(C(C)(C)C)cc1 [Compound 109] |  |
| 82 nM | O=C(N[C@H](C(=O)NC1CCCCC1)c1ccccc1)c1nc2ccc(NC(=O)c3ccccc3-c3cn4ccsc4n3)cc2s1 [Compound 63] |  |
| 14.2 nM | Cc1cccc(C(=O)NCC23CCC(C(=O)N[C@H](C(=O)NCC(C)C)c4ccccc4)(CC2)CC3)c1-c1ccc(C(C)(C)C)cc1 [Compound 71] |  |
| 256 nM | CN(Cc1ccc(F)cc1)C(=O)[C@@H](NC(=O)c1nc2ccc(NC(=O)c3ccccc3-c3nc4ccccc4[nH]3)cc2s1)c1ccccc1 [Compound 39] |  |
| 151 nM | CC(C)(C)c1ccc(-c2ccccc2C(=O)NCC23CCC(C(=O)N[C@H](C(=O)NC4CCCC4)c4ccccc4)(CC2)CC3)cc1 [Compound 46] |  |
| > 10000 nM | CCCCCNC(=O)[C@@H](NC(=O)c1ccccc1-c1csc(NC(=O)c2ccccc2-c2ccc(C(C)(C)C)cc2)n1)c1ccccc1 [Compound 15] |  |
| 158 nM | CN(Cc1ccc(F)cc1)C(=O)[C@@H](NC(=O)c1nc2ccc(NC(=O)c3ccccc3-c3cccnc3)cc2s1)c1ccccc1 [Compound 28] |  |
| 21.6 nM | CC(C)(C)c1ccc(-c2ccccc2C(=O)Nc2ccc3nc(C(=O)N[C@H](C(=O)N4Cc5ccccc5C4)c4ccccc4)sc3c2)cc1 [Compound 23] |  |
| 143 nM | CCCN(C)C(=O)[C@@H](NC(=O)c1ccc(-c2csc(NC(=O)c3cccc(C)c3-c3ccc(C(C)C)cc3)n2)cc1)c1ccccc1 [Compound 97] |  |
| 846 nM | CN(Cc1ccc(F)cc1)C(=O)[C@@H](NC(=O)c1nc(-c2ccc(NC(=O)c3ccccc3-c3ccc(C(C)(C)C)cc3)cc2)cs1)c1ccccc1 [Compound 56, (S)-4-(4-(4′-tert-butylbiphenyl-2-ylcarboxamido)phenyl)-N-(2-((4-fluorobenzyl)(methyl)amino)-2-oxo-1-phenylethyl)thiazole-2-carboxamide] |  |
| 19.8 nM | CCCCN(C)C(=O)[C@@H](NC(=O)C12CCC(CNC(=O)c3cccc(C)c3-c3ccc(C(C)(C)C)cc3)(CC1)CC2)c1ccccc1 [Compound 74] |  |
| 318 nM | CC(C)(C)c1ccc(-c2ccccc2C(=O)Nc2nc(-c3cccc(C(=O)N[C@H](C(=O)N4Cc5ccccc5C4)c4ccccc4)c3)cs2)cc1 [Compound 27] |  |
| 78.8 nM | CN(C(=O)[C@@H](NC(=O)C12CCC(CNC(=O)c3ccccc3-c3ccc(C(C)(C)C)cc3)(CC1)CC2)c1ccccc1)C1CCCC1 [Compound 47] |  |
| 253 nM | CC(C)(C)c1ccc(-c2ccccc2C(=O)NCC23CCC(C(=O)N[C@H](C(=O)N4Cc5ccccc5C4)c4ccccc4)(CC2)CC3)cc1 [Compound 22] |  |
| > 10000 nM | CN(Cc1ccc(F)cc1)C(=O)[C@@H](NC(=O)c1nc2ccc(N)cc2s1)c1ccccc1 [Compound 19] |  |
| 228 nM | CCCN(C)C(=O)[C@@H](NC(=O)c1ccc(-c2csc(NC(=O)c3ccccc3-c3ccc(C(C)C)cc3)n2)cc1)c1ccccc1 [Compound 95] |  |
| 34.1 nM | CC(C)CN(C)C(=O)[C@@H](NC(=O)C12CCC(NC(=O)c3ccccc3-c3ccc(C(C)(C)C)cc3)(CC1)CC2)c1ccccc1 [Compound 102] |  |
| 165 nM | CC(C)(C)NC(=O)[C@@H](NC(=O)C12CCC(CNC(=O)c3ccccc3-c3ccc(C(C)(C)C)cc3)(CC1)CC2)c1ccccc1 [Compound 50] |  |
| 247 nM | COc1cccc(C(=O)NC23CCC(C(=O)N[C@H](C(=O)N(C)CC(C)C)c4ccccc4)(CC2)CC3)c1-c1ccc(C(C)C)cc1 [Compound 116] |  |
| 296 nM | CCCCCNC(=O)[C@@H](NC(=O)c1cccc(-c2csc(NC(=O)c3ccccc3-c3ccc(C(C)(C)C)cc3)n2)c1)c1ccccc1 [Compound 11] |  |
